Patent US8546588B2, “Substituted hydroxamic acids and uses thereof” (Millennium Pharmaceuticals, Inc., priority 2010, dated 2013)

The compounds below were run against T1, purified human HDAC6 (Homo sapiens, UniProt Q9UBN7) (assay: HDAC6 Enzyme Assay). Conditions: substrate Ac-Arg-Gly-Lys(Ac)-AMC peptide, 1 hour at 30° C.
T1 construct: purchased BPS Bioscience 5006
T1 sequence (Q9UBN7 1-1215): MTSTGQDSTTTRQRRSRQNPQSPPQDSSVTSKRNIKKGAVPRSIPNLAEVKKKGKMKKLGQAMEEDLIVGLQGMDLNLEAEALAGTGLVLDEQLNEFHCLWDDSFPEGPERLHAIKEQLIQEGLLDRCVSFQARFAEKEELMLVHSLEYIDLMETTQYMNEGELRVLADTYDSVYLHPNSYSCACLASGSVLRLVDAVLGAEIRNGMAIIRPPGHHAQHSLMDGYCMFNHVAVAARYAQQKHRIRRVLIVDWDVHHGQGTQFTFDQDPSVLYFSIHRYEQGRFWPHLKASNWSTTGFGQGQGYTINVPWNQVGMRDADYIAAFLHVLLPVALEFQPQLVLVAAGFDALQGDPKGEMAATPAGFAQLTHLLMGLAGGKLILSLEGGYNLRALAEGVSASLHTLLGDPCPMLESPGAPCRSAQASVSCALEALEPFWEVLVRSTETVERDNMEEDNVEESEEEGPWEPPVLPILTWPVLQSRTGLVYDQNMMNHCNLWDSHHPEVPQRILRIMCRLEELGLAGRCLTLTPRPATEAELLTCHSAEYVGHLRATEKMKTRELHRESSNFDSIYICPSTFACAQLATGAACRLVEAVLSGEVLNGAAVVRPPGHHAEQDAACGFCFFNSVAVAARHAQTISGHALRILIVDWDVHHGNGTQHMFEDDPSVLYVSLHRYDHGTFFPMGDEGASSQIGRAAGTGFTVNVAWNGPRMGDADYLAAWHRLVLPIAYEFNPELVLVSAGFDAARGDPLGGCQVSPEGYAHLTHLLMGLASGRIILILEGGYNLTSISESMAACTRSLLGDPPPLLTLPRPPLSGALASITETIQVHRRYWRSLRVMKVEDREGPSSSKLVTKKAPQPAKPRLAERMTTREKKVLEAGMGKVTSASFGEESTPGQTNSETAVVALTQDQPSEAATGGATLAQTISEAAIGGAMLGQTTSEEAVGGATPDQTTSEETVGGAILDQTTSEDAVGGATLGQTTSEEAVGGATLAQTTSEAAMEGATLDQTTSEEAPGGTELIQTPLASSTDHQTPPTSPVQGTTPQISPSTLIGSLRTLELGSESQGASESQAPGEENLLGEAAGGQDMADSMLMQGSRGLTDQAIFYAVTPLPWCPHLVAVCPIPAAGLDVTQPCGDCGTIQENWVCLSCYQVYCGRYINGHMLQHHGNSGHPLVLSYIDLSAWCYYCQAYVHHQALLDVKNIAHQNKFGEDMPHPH
Format: biochemical
Method: To measure the inhibition of HDAC6 activity, purified human HDAC6 (BPS Bioscience; Cat. No. 5006) is incubated with substrate Ac-Arg-Gly-Lys(Ac)-AMC peptide (Bachem Biosciences; Cat. No. I-1925) for 1 hour at 30° C. in the presence of test compounds or vehicle DMSO control. The reaction is stopped with the HDAC inhibitor trichostatin A (Sigma; Cat. No. T8552) and the amount of Arg-Gly-Lys-AMC generated is quantitated by digestion with trypsin (Sigma; Cat. No. T1426) and subsequent measurement of the amount of AMC released using a fluorescent plate reader (Pherastar; BMG Technologies) set at Ex 340 nm and Em 460 nm. Concentration response curves are generated by calculating the fluorescence increase in test compound-treated samples relative to DMSO-treated controls, and enzyme inhibition (IC50) values are determined from those curves.
In the case of CC(NC(=O)c1ccc(OCc2ccccc2)cc1)c1ncc(C(=O)NO)s1 (centres unmarked) [Compound I-49, 2-(1-{[4-(benzyloxy)benzoyl]amino}ethyl)-N-hydroxy-1,3-thiazole-5-carboxamide], the IC50 is reported as < 100 nM.
In the case of C[C@@H](NC(=O)c1cc2ccccc2s1)c1ncc(C(=O)NO)s1 [Compound I-178, 2-{(1R)-1-[(1-benzothien-2-ylcarbonyl)amino]ethyl}-N-hydroxy-1,3-thiazole-5-carboxamide], the IC50 is reported as < 100 nM.
For COc1ccc(C(=O)N[C@H](C)c2ccc(C(=O)NO)s2)cc1 [Compound I-9, N-hydroxy-5-{(1R)-1-[(4-methoxybenzoyl)amino]ethyl}thiophene-2-carboxamide], the IC50 was < 100 nM.
Work on CC(NC(=O)Nc1cc(Cl)cc(Cl)c1)c1ccc(C(=O)NO)s1 (centres unmarked) [Compound I-4, 5-[1-({[(3,5-dichlorophenyl)amino]carbonyl}amino)ethyl]-N-hydroxythiophene-2-carboxamide] yielded an IC50 of 100 to 500 nM.
In the case of C[C@@H](NC(=O)C12CC3CC(CC(C3)C1)C2)c1cc(C(=O)NO)on1 [Compound I-170, 3-{(1R)-1-[(1-adamantylcarbonyl)amino]ethyl}-N-hydroxyisoxazole-5-carboxamide], the IC50 is reported as > 500 nM.
With C[C@@H](NC(=O)c1cc2ccccc2o1)c1ncc(C(=O)NO)s1 [Compound I-165, 2-{(1R)-1-[(1-benzofuran-2-ylcarbonyl)amino]ethyl}-N-hydroxy-1,3-thiazole-5-carboxamide] the IC50 was < 100 nM.
C[C@@H](NC(=O)NC(C)(C)C)c1ccc(C(=O)NO)s1 [Compound I-8, 5-((1R)-1-{[(tert-butylamino)carbonyl]amino}ethyl)-N-hydroxythiophene-2-carboxamide] showed an IC50 of 100 to 500 nM.
In the case of Cc1nc(-c2ccccn2)sc1C(=O)N[C@H](C)c1cc(C(=O)NO)on1 [Compound I-163, N-hydroxy-3-((1R)-1-{[(4-methyl-2-pyridin-2-yl-1,3-thiazol-5-yl)carbonyl]amino}ethyl)isoxazole-5-carboxamide], the IC50 is reported as > 500 nM.
C[C@@H](NC(=O)C12CC3CC(CC(C3)C1)C2)c1ccc(C(=O)NO)s1 [Compound I-11, 5-{(1R)-1-[(1-adamantylcarbonyl)amino]ethyl}-N-hydroxythiophene-2-carboxamide] was tested, and the IC50 was > 500 nM.
For CC(NC(=O)c1cc2ccccc2n1C)c1ncc(C(=O)NO)s1 (centres unmarked) [Compound I-51, N-(1-{5-[(hydroxyamino)carbonyl]-1,3-thiazol-2-yl}ethyl)-1-methyl-1H-indole-2-carboxamide], the IC50 was < 100 nM.
In the case of COc1ccc(C(=O)N[C@H](C)c2cc(C(=O)NO)on2)cc1 [Compound I-164, N-hydroxy-3-{(1R)-1-[(4-methoxybenzoyl)amino]ethyl}isoxazole-5-carboxamide], the IC50 is reported as > 500 nM.
With COc1ccc(C(=O)N[C@H](C)c2ncc(C(=O)NO)s2)cc1 [Compound I-169, N-hydroxy-2-{(1R)-1-[(4-methoxybenzoyl)amino]ethyl}-1,3-thiazole-5-carboxamide] the IC50 was 100 to 500 nM.
For C[C@@H](NC(=O)C1(C)CCCCC1)c1cc(C(=O)NO)on1 [Compound I-157, N-hydroxy-3-((1R)-1-{[(1-methylcyclohexyl)carbonyl]amino}ethyl)isoxazole-5-carboxamide], the IC50 was > 500 nM.
With C[C@@H](NC(=O)c1cc2ccccc2s1)c1ccc(C(=O)NO)s1 [Compound I-16, N-((1R)-1-{5-[(hydroxyamino)carbonyl]-2-thienyl}ethyl)-1-benzothiophene-2-carboxamide] the IC50 was < 100 nM.
For CC(NC(=O)Nc1ccccc1Oc1ccccc1)c1ccc(C(=O)NO)s1 (centres unmarked) [Compound I-44, N-hydroxy-5-[1-({[(2-phenoxyphenyl)amino]carbonyl}amino)ethyl]thiophene-2-carboxamide], the IC50 was < 100 nM.
With CC(NS(=O)(=O)c1ccccc1F)c1ccc(C(=O)NO)s1 (centres unmarked) [Compound I-47, 5-(1-{[(2-fluorophenyl)sulfonyl]amino}ethyl)-N-hydroxythiophene-2-carboxamide] the IC50 was 100 to 500 nM.
In the case of CC(NS(=O)(=O)c1ccccc1)c1ccc(C(=O)NO)s1 (centres unmarked) [Compound I-48, N-hydroxy-5-{1-[(phenylsulfonyl)amino]ethyl}thiophene-2-carboxamide], the IC50 is reported as 100 to 500 nM.
